The text below walks through data of US7781565B2 (priority 2006, dated 2010).

“Also recorded” adds a separate entry of the source.

In this test the test system is NCI-60 cell lines. The class given is cell-based, human.

For the substance SGVSISC, the “Cell Line (NCI-60 cell line the peptide and its motif are associated with)” value is “IGROV1 Ovarian”.
Take VGSVVGR: the “Cell Line with which the peptide (and its tripeptide motif) is associated” value (“Cell Line with which the peptide” for short) is on record as “Hop-92-Lung”.
Regarding GGRCGAE, the “Cell Line the peptide is associated with (peptide recovered from phage library selection on this NCI-60 cell line)” value is reported as “BT-549 Breast”.
On the same count and under the same terms, for GVSISDG the value was “SN12C Renal”.
On to LTAAVMV, for which the “Cell Line (NCI-60 cell line the peptide is associated with)” value was “SNB-75 CNS”.
WLLSSEI: the “Cell Line (NCI-60 cell line the peptide and its motif are associated with)” value is reported as “PC3 Prostate”.
Take AGLEDLG: the “Cell Line the peptide is associated with (peptide recovered from phage library selection on this NCI-60 cell line)” value was “RXF393 Renal”.
RVGRLGG: the “Cell Line with which the peptide” value was “A549-Lung”.
For the substance GAGSGRT, the “Cell Line the peptide is associated with (peptide recovered from phage library selection on this NCI-60 cell line)” value is given as “HS 578 T Breast”.
On to GVAGLRW, for which the “Cell Line (NCI-60 cell line the peptide is associated with)” value is “SW620-Colon”.
Take VRVSLNS: the “Cell Line the peptide is associated with (peptide recovered from phage library selection on this NCI-60 cell line)” value is “MDA-MB-231 Breast”.
In the case of AVRGGRP, the “Cell Line with which the peptide” value is on record as “Hop-92-Lung”.
On the same count and under the same terms, for HVGLLRA the value was “Hop-62-Lung”.
As to NCYSLRS, the “Cell Line (NCI-60 cell line the peptide and its motif are associated with)” value is on record as “OVCAR-4 Ovarian”.
Consider GGWARAV, for which the “Cell Line (NCI-60 cell line the peptide is associated with)” value is given as “SNB-75 CNS”.
With FDRAVAN, the “Cell Line with which the peptide” value is recorded as “Hop-62-Lung”.
On to RVARGDR, for which the “Cell Line (NCI-60 cell line the peptide is associated with)” value is listed as “KM-12C Colon”.
On to RLWGSVV, for which the “Cell Line (NCI-60 cell line the peptide and its motif are associated with)” value was “SK-OV-3-3 Ovarian”.
On to LLRGLRP, for which the “Cell Line the peptide is associated with (peptide recovered from phage library selection on this NCI-60 cell line)” value is listed as “TK-10 Renal”.
In the case of GVRRSLL, the “Cell Line (NCI-60 cell line the peptide is associated with)” value is “SNB-75 CNS”.
AGLLSDV: the “Cell Line the peptide is associated with (peptide recovered from phage library selection on this NCI-60 cell line)” value is recorded as “NCI/ADR-RES Breast”.
Regarding SGGRFVP, the “Cell Line the peptide is associated with (peptide recovered from phage library selection on this NCI-60 cell line)” value is “MDA-MB-231 Breast”.
Same read-out and setting: for PVFRGGS the value was “MDA-MB-231 Breast”.
ASLVARN: the “Cell Line (NCI-60 cell line the peptide and its motif are associated with)” value is “SK-OV-3-3 Ovarian”.
For IGVRGAV, the “Cell Line (NCI-60 cell line the peptide is associated with)” value is recorded as “MALME-3M Melanoma”.
For the substance LLRSAAP, the “Cell Line with which the peptide” value is “RPMI-8226-Leukemia”.
The same measure, in the same setting: for GSLGVSL the value was “H226-Lung”.
The same measure, in the same setting: next, WLDASLM: “SR Leukemia”.
As for DGGLNDC, the “Cell Line (NCI-60 cell line the peptide and its motif are associated with)” value is “OVCAR-5 Ovarian”.
As to RVDRGSL, the “Cell Line the peptide is associated with (peptide recovered from phage library selection on this NCI-60 cell line)” value is “CAIK-1 Renal”.
Turning to AAGREFR, the “Cell Line with which the peptide” value is “Hop-62-Lung”.
With RSSPVWT, the “Cell Line (NCI-60 cell line the peptide is associated with)” value was “SW620-Colon”.
For GLWYRAV, the “Cell Line (NCI-60 cell line the peptide and its motif are associated with)” value was “SK-MEL-28 Melanoma”.
As to FISAGGW, the “Cell Line the peptide is associated with (peptide recovered from phage library selection on this NCI-60 cell line)” value is recorded as “MDA-MB-231 Breast”.
As for FGLRMSN, the “Cell Line the peptide is associated with (peptide recovered from phage library selection on this NCI-60 cell line)” value was “ACHN Renal”.
Regarding NMGAVGS, the “Cell Line (NCI-60 cell line the peptide and its motif are associated with)” value is “DU-145 Prostate”.
Same read-out and setting: for PVGAAVA the value was “UACC62 Melanoma”.
Still for that read-out and setting: for LKAGLRS the value was “OVCAR-5 Ovarian”.
With TWGRLGL, the “Cell Line the peptide is associated with (peptide recovered from phage library selection on this NCI-60 cell line)” value is “ACHN Renal”.
On the same count and under the same terms, next, RVRGVLD: “BT-549 Breast”.
Take AAVTVVR: the “Cell Line (NCI-60 cell line the peptide is associated with)” value is reported as “KM-12C Colon”.
In the case of ESARGAL, the “Cell Line (NCI-60 cell line the peptide and its motif are associated with)” value is “OVCAR-4 Ovarian”.
Take LVRLVSL: the “Cell Line (NCI-60 cell line the peptide and its motif are associated with)” value is listed as “IGROV1 Ovarian”.
As to GRDWGGL, the “Cell Line the peptide is associated with (peptide recovered from phage library selection on this NCI-60 cell line)” value is “T-47D Breast”.
Turning to WAHGVLS, the “Cell Line (NCI-60 cell line the peptide and its motif are associated with)” value was “M14 Melanoma”.
In the case of PSVGVRA, the “Cell Line with which the peptide” value was “H322-Lung”.
Regarding DVRAVSS, the “Cell Line with which the peptide” value is given as “EKVX-Lung”.
RYRVSVY: the “Cell Line (NCI-60 cell line the peptide is associated with)” value is recorded as “KM-12C Colon”.
For the substance RAHGLVC, the “Cell Line the peptide is associated with (peptide recovered from phage library selection on this NCI-60 cell line)” value was “RXF393 Renal”.
As to QRSSDLT, the “Cell Line (NCI-60 cell line the peptide and its motif are associated with)” value is reported as “M14 Melanoma”.
Consider GWSASLG, for which the “Cell Line (NCI-60 cell line the peptide is associated with)” value was “HCT-116 Colon”.
With PAGRMLS, the “Cell Line (NCI-60 cell line the peptide and its motif are associated with)” value is recorded as “SK-MEL-2 Melanoma”.
Turning to AGSQSWE, the “Cell Line with which the peptide” value is listed as “A549-Lung”.
Consider SGPAGSF, for which the “Cell Line (NCI-60 cell line the peptide and its motif are associated with)” value was “OVCAR-4 Ovarian”.
On the same count and under the same terms, next, FQRSGRL: “SK-MEL-28 Melanoma”.
As to RAVGYNA, the “Cell Line (NCI-60 cell line the peptide is associated with)” value is “MALME-3M Melanoma”.
On to GRVGRDG, for which the “Cell Line the peptide is associated with (peptide recovered from phage library selection on this NCI-60 cell line)” value is given as “A498 Renal”.
As to GRGVTIW, the “Cell Line (NCI-60 cell line the peptide is associated with)” value is on record as “HT-29 Colon”.
With FSLGSSP, the “Cell Line the peptide is associated with (peptide recovered from phage library selection on this NCI-60 cell line)” value is recorded as “UO31 Renal”.
On to AGSAFWA, for which the “Cell Line (NCI-60 cell line the peptide and its motif are associated with)” value is 786-0 Renal.
Turning to RMGFGLR, the “Cell Line (NCI-60 cell line the peptide is associated with)” value is reported as “LOX-IMVI Melanoma”.
Consider QARGSWL, for which the “Cell Line (NCI-60 cell line the peptide and its motif are associated with)” value is listed as “OVCAR-4 Ovarian”.
On to FDRGSLT, for which the “Cell Line (NCI-60 cell line the peptide is associated with)” value is given as “SF-295 CNS”.
For RGSYVER, the “Cell Line the peptide is associated with (peptide recovered from phage library selection on this NCI-60 cell line)” value is reported as “BT-549 Breast”.
On the same count and under the same terms, next, SNGLRVV: “ACHN Renal”.
Regarding MGSAVSL, the “Cell Line with which the peptide” value is “Hop-92-Lung”.
On to RGSHLVP, for which the “Cell Line with which the peptide” value is “CCRF-CEM Leukemia”.
For the substance GSSGLLA, the “Cell Line the peptide is associated with (peptide recovered from phage library selection on this NCI-60 cell line)” value is given as “NCI/ADR-RES Breast”.
On the same count and under the same terms, for RASRIGL the value was “TK-10 Renal”; for LASLARP, “T-47D Breast”.
Turning to WTKRGSV, the “Cell Line with which the peptide” value is “K-562-Leukemia”.
As to VGVSQEW, the “Cell Line the peptide is associated with (peptide recovered from phage library selection on this NCI-60 cell line)” value is listed as “TK-10 Renal”.
As for LRAGGSY, the “Cell Line (NCI-60 cell line the peptide and its motif are associated with)” value was “IGROV1 Ovarian”.
For LAGMRGS, the “Cell Line (NCI-60 cell line the peptide and its motif are associated with)” value was “UACC62 Melanoma”.
As to SVSRGRV, the “Cell Line the peptide is associated with (peptide recovered from phage library selection on this NCI-60 cell line)” value is listed as “A498 Renal”.
On the same count and under the same terms, next, RAVCEWD: “CAIK-1 Renal”.
Turning to GRLAKSI, the “Cell Line (NCI-60 cell line the peptide and its motif are associated with)” value is “UACC 257 Melanoma”.
As to GNYGSVL, the “Cell Line with which the peptide” value is given as “Hop-92-Lung”.
Take GRERVSH: the “Cell Line the peptide is associated with (peptide recovered from phage library selection on this NCI-60 cell line)” value is listed as “CAIK-1 Renal”.
As for DEGLRSR, the “Cell Line (NCI-60 cell line the peptide is associated with)” value was “HCT-116 Colon”.
On the same count and under the same terms, for VLRSALQ the value was “KM-12C Colon”.
With GDRAVGL, the “Cell Line the peptide is associated with (peptide recovered from phage library selection on this NCI-60 cell line)” value is given as “UO31 Renal”.
Same read-out and setting: next, GLGSCAP: “RXF393 Renal”.
Turning to LRSSMML, the “Cell Line (NCI-60 cell line the peptide is associated with)” value is reported as “MALME-3M Melanoma”.
In the case of AGGSLGS, the “Cell Line with which the peptide” value is reported as “H23-Lung”.
Same read-out and setting: next, GVLHSIA: “K-562-Leukemia”.
For the substance REVPGLR, the “Cell Line (NCI-60 cell line the peptide is associated with)” value is recorded as “SNB-19 CNS; also recorded: SF-539 CNS”.
The same measure, in the same setting: for GAGRGTP the value was “HT-29 Colon”.
Take WSSTASL: the “Cell Line with which the peptide” value is recorded as “H460-Lung”.
Turning to PQGPSSV, the “Cell Line the peptide is associated with (peptide recovered from phage library selection on this NCI-60 cell line)” value was “ACHN Renal”.
Regarding SRKGLRS, the “Cell Line (NCI-60 cell line the peptide and its motif are associated with)” value is recorded as 786-0 Renal.
With EGGRTHW, the “Cell Line (NCI-60 cell line the peptide is associated with)” value is reported as “HT-29 Colon”.
On to AGGGGYH, for which the “Cell Line the peptide is associated with (peptide recovered from phage library selection on this NCI-60 cell line)” value was “MDA-MB-435-Breast”.
Consider IGVLASA, for which the “Cell Line (NCI-60 cell line the peptide and its motif are associated with)” value is “SK-MEL-28 Melanoma”.
For GSSRQFV, the “Cell Line with which the peptide” value is listed as “A549-Lung”.
Same read-out and setting: next, WVGSSKF: “A549-Lung”.
Take GSSACGA: the “Cell Line (NCI-60 cell line the peptide is associated with)” value is “U251 CNS”.
As to RDGAVNL, the “Cell Line (NCI-60 cell line the peptide and its motif are associated with)” value is “UACC 257 Melanoma”.
On to LPLGLVS, for which the “Cell Line the peptide is associated with (peptide recovered from phage library selection on this NCI-60 cell line)” value was “T-47D Breast”.
Take LSGSVLQ: the “Cell Line (NCI-60 cell line the peptide is associated with)” value is “HCT-116 Colon”.
As for SARQGGR, the “Cell Line (NCI-60 cell line the peptide and its motif are associated with)” value is “M14 Melanoma”.
Still for that read-out and setting: for GRVTWRS the value was “OVCAR-5 Ovarian”.
Take GARAVAP: the “Cell Line the peptide is associated with (peptide recovered from phage library selection on this NCI-60 cell line)” value is listed as “HS 578 T Breast”.
As to GLREVQD, the “Cell Line the peptide is associated with (peptide recovered from phage library selection on this NCI-60 cell line)” value is reported as “HS 578 T Breast”.
Consider CMLRSAT, for which the “Cell Line (NCI-60 cell line the peptide and its motif are associated with)” value was “SK-MEL-2 Melanoma”.
Still for that read-out and setting: next, LARGVPP: “M14 Melanoma”.
On to VLRSGEL, for which the “Cell Line (NCI-60 cell line the peptide is associated with)” value is listed as “SF-295 CNS”.
Still for that read-out and setting: for FEDLLSL the value was “MALME-3M Melanoma”.
As to HTRAVSE, the “Cell Line (NCI-60 cell line the peptide and its motif are associated with)” value is reported as “OVCAR-8 Ovarian”.
Still for that read-out and setting: for LRGSRQF the value was “SK-MEL-28 Melanoma”.
Regarding VGIGAGG, the “Cell Line the peptide is associated with (peptide recovered from phage library selection on this NCI-60 cell line)” value is reported as “T-47D Breast”.
Consider RPWGAVA, for which the “Cell Line (NCI-60 cell line the peptide and its motif are associated with)” value is on record as “SK-OV-3-3 Ovarian”.
